In PMC11211329, “Phage-encoded bismuth bicycles enable instant access to targeted bioactive peptides” (Communications Chemistry, 2024):

System: naïve three-cysteine phage library
Experiment: Plaque-forming assay, effect of bicyclisation reagent on phage infectivity
Assay type: cell-based, M13 bacteriophage
Details: 120 μM, 5 min exposure
Description: bismuth(III). The reaction mixture was vortexed briefly once more and incubated at room […]
Modification with bismuth tripotassium dicitrate (gastrodenol)
Bismuth tripotassium dicitrate (gastrodenol) in ultrapure sterile water (50 mM) was added to the reduced phage solution while gently vortexing to a final volume of 1040 μL to obtain a final concentration of 120 μM bismuth(III). The reaction mixture was vortexed briefly once more and incubated at room temperature for 5 min.
Modification with sodium arsenite (NaAsO2)
Sodium arsenite (NaAsO2) in ultrapure sterile water (50 mM) was added to the reduced phage solution while gently vortexing to a final volume of 1040 μL to obtain a final concentration of 120 μM arsenic(III). The reaction mixture was vortexed briefly once more and incubated at room […]
An overnight culture of Escherichia coli ER2738 (New England Biolabs, E4104, USA), a strain commonly used for phage display, was prepared by growing the bacteria in tetracycline containing LB media at 37 °C for 16 h at 220 rpm. Aliquots of 3 mL of melted top agar were transferred into sterile polystyrene tubes (Corning, 352051, USA) and heated up to 50 °C on a dry bath (Thermo Fisher, 88870004, USA) until ready to use. A dilution series of the phage library was prepared as required, at a final volume of 1 mL, whereby a 10 μL portion of each phage dilution was added to 200 μL of the bacterial overnight culture, incubated for 5 min and transferred fully into a tube containing 3 mL top agar. The contents in the tube were gently mixed by vortexing and poured entirely on a warm LB/IPTG/X-Gal plate, allowing the top agar-mixture to spread evenly across the plate. The plate was allowed to solidify and left in an incubator oven overnight at 37 °C. The number of plaques was counted by selecting plates with plaques separated at a countable level.
The concentration of the original solution was then calculated in pfu/mL using the following equation (Supplementary Equation 1).
Supplementary Equation 1.
concentration of original phage library solution = number of plaques ∙ dilution factor [pfu/mL]
Effect of bicyclisation reagent on phage infectivity
To evaluate the impact of bismuth(III) and arsenic(III) on the infectivity of the naïve three-cysteine phage library, phage titres were measured both before and after the addition of the metal(loid).
Accordingly, for each modification experiment three 1000 μL aliquots of ~1011 pfu/mL of freshly amplified naïve phage library in PBS were set aside and subjected to a plaque-forming assay to determine their titre. Next, these library aliquots were individually exposed to either 120 μM bismuth(III) from BiBr3 (50 mM DMSO) or gastrodenol (50 mM in ultrapure water) or 120 μM arsenic(III) from NaAsO2 (50 mM in ultrapure water), with each reagent being used for the modification of three library aliquots. During addition of the thiophilic element, the reaction mixtures were briefly vortexed and incubated at room temperature for 5 min. Excess reagent was removed from the modified phage library solution using spin desalting columns (Thermo Fisher, 89883, USA) at 2000 × g for 2.5 min. The titre of the modified phage solution was subsequently determined using the plaque-forming assay, which was also performed in triplicate. A parallel experiment was conducted using the addition of PBS as the control. Phage titres before and after their respective modification were plotted in GraphPad Prism 10 (Dotmatics, USA) […]
Supplementary Fig. 20. […]

Row | Compound | effect on phage infectivity | effect on phage infectivity (listed as As(III))
1 | O=[As][O-].[Na+] [NaAsO2, sodium arsenite] | no relevant negative effect | uncompromised
2 | [Bi+3] [Bi(III)] | uncompromised | 
3 | [Br][Bi]([Br])[Br] [BiBr3, bismuth tribromide] | no relevant negative effect | 
4 | O=C([O-])CC(O)(CC(=O)[O-])C(=O)[O-].O=C([O-])CC(O)(CC(=O)[O-])C(=O)[O-].[Bi+3].[K+].[K+].[K+] [gastrodenol, bismuth tripotassium dicitrate] | no relevant negative effect | 
